According to patent US4522943A, “Chemical compounds” (Bristol-Myers Company, priority 1982, dated 1985):

Columns and labels:
[1] = test system: gastric secretion; settings: in animals, including man; cited from earlier work
[2] = in vivo; cited from earlier work
[3] = test system: gastric acid secretion; assay: Gastric Antisecretory Activity in the Heidenhain Pouch Dog; assay type: in vivo, female dogs; settings: for Potency Ratio [cimetidine = 1.0] (INTRAVENOUS) / Potency Ratio [cimetidine = 1.0] (ORAL): relative to cimetidine = 1.0
Description: The dosage of the compounds of this invention will depend not only on such factors as the weight of the patient, but also on the degree of gastric acid inhibition desired and the potency of the particular compound being utilized. The decision as to the particular dosage to be employed is within the discretion of the physician. […] The usual human adult oral dose of cimetidine is 300 mg, given four times a day. The usual human adult starting oral dosages of the compounds of this invention are readily determined from their oral ED50 in this same test. […] Similar calculations may be made for iv dosages. These starting dosages (and the number of times administered per day) may, of course, be varied by titration of the dosage to the particular circumstances of the specific patient. […] The active ingredient will preferably be administered in equal doses from one to four times a day.
(§1) Med Res., 3, 86 (1975). […] Two of the standard animal models for determining gastric antisecretory activity of histamaine H2 -antagonists are the Gastric Fistula Rat and the Heidenhain Pouch Dog.
Determination of Gastric Antisecretory Activity in the Heidenhain Pouch Dog
Prior to surgery, hematology and blood chemistry profiles are obtained and an assessment made as to the general health of selected female dogs. Dogs are vaccinated with Tissue Vax 5 (DHLP-Pitman-Moore) and housed in general animal quarters for four weeks' observation so incipient diseases may become apparent. Dogs are fasted with water ad libitium 24 hours prior to surgery.
Anesthesia is induced with Sodium Pentothal (Abbott) 25-30 mg/kg iv. Subsequent anesthesia is maintained with methoxyflurane (Pitman-Moore). A mid-line linea alba incision from xiphoid to umbilicus provides good exposure and ease of closure. The stomach is pulled up into the operative field, the greater curvature stretched out at multiple points and clamps placed along the selected line of incision. The pouch is made from the corpus of the stomach so that true parietal cell juice is obtained. About 30% of the corpus volume is resected. The cannula is made of light-weight,biologically-inert material such as nylon or Delrin with dimensions and attachments after DeVito and Harkins [J. Appl. Physiol., 14, 138 (1959)]. Post operatively, dogs are medicated with antibiotics and an analgesic. They are allowed 2-3 months for recovery. Experiments are carried out in the following way: Dogs are fasted overnight (~18 hours) with water ad libitum prior to each experiment. The dogs are placed in a sling and a saphenous vein cannulated for drug administration. Histamine as the base (100 μg/kg/hr and chlorpheniramine maleate (0.25 mg/kg/hr) are infused continuously (in a volume of 6 ml/hr) with a Harvard infusion pump.
Ninety minutes' infusion are allowed for the dogs to reach a steady state of acid output. At this time the drug or normal saline (control) is administered concomitantly with the secretagogue in a volume of 0.5 ml/kg over a 30 second period. When oral studies are to be carried out, the drug is administered via gastric gavage in a volume of 5 ml/kg. Infusion of the secretagogue is continued and 15 minute samples of the gastric juice are taken for 4.5 hours. Each sample is measured to the nearest 0.5 ml and titratable acidity is determined by titrating a 1 ml sample to pH 7.0 with 0.2N NaOH, using an Autoburet and an electrometric pH meter (Radiometer). Titratable acid output is calculated in microequivalents by multiplying the volume in milliliters by the acid concentration in milliequivalents per liter.
Results are expressed as percent inhibition relative to control readings. Dose response curves are constructed and ED50 values are calculated by regression analyses. From 3 to 5 dogs are used at each dose level and a minimum of three dosage levels are utilized for determination of a dose response curve.

[4] = peptic ulcer disease, clinical evaluation; cited from earlier work
[5] = test system: histamine H2-receptor; settings: relative to another H2-antagonist; cited from earlier work
[6] = test system: gastric acid secretion; assay: Gastric Antisecretory Activity in the Gastric Fistula Rat; assay type: in vivo, Male Long Evans rats; settings: sc, relative to cimetidine = 1.0, 95% confidence limits on following line
Description: as §1
Determination of Gastric Antisecretory Activity in the Gastric Fistula Rat
Male Long Evans rats weighing about 240-260 grams at the time of cannula implantation are used. The design and implantation of the stainless steel cannula into the anterior wall of the fore-stomach are carried out essentially as described by Pare et al. [Laboratory Animal Science, 27, 244 (1977)]. The fistula components are designed and the operative procedure is carried out exactly as described in the above reference. Post operatively the animals are individually housed in solid bottom cages with sawdust and are allowed food and water ad libitum throughout the entire recovery period. Animals are not used for test purposes for at least 15 days after the operative procedure.
The animals are fasted but allowed water ad libitum for 20 hours before the testing procedure is to begin. […]
Titratable acid output is calculated in microequivalents by multiplying the volume in milliliters by the acid concentration in milliequivalents per liter.
Results are expressed as percent inhibition relative to control readings. Dose response curves are constructed and ED50 values are calculated by regression analyses. […]

In the case of `CNC(=S)NCCCCc1cnc[nH]1` [Burimamide], the inhibits gastric secretion [1] is listed as “inhibits gastric secretion” and the oral absorption [2] is listed as “poor”.
For `CNC(=NC#N)NCCSCc1nc[nH]c1C` [Cimetidine], the “ED50 (ORAL)” value ([3]; oral, histamine-stimulated, 95% confidence limits on following line) is listed as 3.29 µmol/kg, the clinical effectiveness [4] is listed as “effective therapeutic agent in the treatment of peptic ulcer disease” and the “H2-antagonist potency / effectiveness” value [5] is listed as “as effective an H2 -antagonist as metiamide”.
With `Nc1c(NCCCOc2cccc(CN3CCCCC3)c2)c(=O)c1=O` [Example 1, 1-Amino-2-[3-(3-piperidinomethylphenoxy)propylamino]cyclobutene-3,4-dione] the “Potency Ratio [cimetidine = 1.0] (INTRAVENOUS)” value (“Potency Ratio … (INTRAVENOUS)” for short) [3] was 87 and the “Potency Ratio [cimetidine = 1.0] (ORAL)” value ([3]; oral) was 25.
In the case of `CN(C)Cc1ccc(CSCCNc2c(N)c(=O)c2=O)o1` [Example 2, 1-Amino-2-{2-[(5-dimethylaminomethyl-2-furyl)metylthio]ethylamino}cyclobutene-3,4-dione], the “Potency Ratio … (INTRAVENOUS)” value [3] is reported as ~ 20.
In the case of `CN(C)Cc1ccc(CSCCNc2c(N)c(=O)c2=O)s1` [Example 3, 1-Amino-2-{2-[(5-dimethylaminomethyl-2-thienyl)methylthio]ethylamino}cyclobutene-3,4-dione], the “Potency Ratio [cimetidine = 1.0]” value [6] is reported as ~ 1.
For `CN(C)Cc1cccc(OCCCNc2c(N)c(=O)c2=O)c1` [Example 9, 1-Amino-2-[3-(3-dimethylaminomethylphenoxy)propylamino]cyclobutene-3,4-dion], the “Potency Ratio … (INTRAVENOUS)” value [3] was ~ 40 and the “Potency Ratio [cimetidine = 1.0] (ORAL)” value ([3]; oral) was ~ 20.
For `Nc1c(NCCCOc2cccc(CN3CCCCCC3)c2)c(=O)c1=O` [Example 10i, 1-amino-2-[3-(3-hexamethyleneiminomethylphenoxy)propylamino]cyclobutene-3,4-dione], the “Potency Ratio … (INTRAVENOUS)” value [3] was over 40.
In the case of `CNC(=S)NCCSCc1nc[nH]c1C` [Metiamide], the “H2-antagonist potency / effectiveness” value [5] is given as “more potent than burimamide”.
